These are literature values, as cited in patent US20030228369A1, “Process for conversion of high viscosity fluids and compositions thereof” (priority 2002, published 2003).

For the series the following is noted: pH about 1.2.

For the compound `CC(C)=CCC1=C(O)[C@](O)(CC=C(C)C)C(=O)C(C(=O)CC(C)C)=C1O` [humulon], the “solubility at pH of the stomach / gastric fluid” value is recorded as “not soluble”.
